“Also recorded” adds a separate entry of the source. Like-named read-outs stand apart in the source and are kept apart here.
Tests used:
[1] = tested on: CYP3A (SVA, AVA); CYP3A and CYP2C8 (CVA); test: in vitro; conditions: human, human liver microsomes, pH 7.4
Method: For oxidative metabolism studies, a typical incubation mixture, in a final volume of 0.5 mL, contained 0.1-0.25 mg liver microsomal protein, 0.1M sodium phosphate buffer (pH 7.4), 10 mM MgCl2, and 1 mM NADPH. […] Incubations were conducted at 37° C. and were terminated after 10-20 min (with NADPH) by the addition of ACN (acetonitrile). The ACN extracts were evaporated to dryness and reconstituted for analysis by HPLC with UV detection.
In brief, samples, held in an autosampler set at 5° C., were chromatographed on either a Betasil C18 (250×4.6 mm, 5 μm) or a Zorbax C18 (Waters, 150×4.6 mm, 5 μm) column, preceded by a C18 guard column, with a linear gradient of acetonitrile in 10 or 25 mM ammonium acetate, pH 4.5. […] Due to unavailability of authentic standards for oxidative metabolites of statins, quantitation of these metabolites in the in vitro incubation mixtures was accomplished using standard curves for their respective statins, assuming identical extraction recoveries and extinction coefficients between the parent drug and its corresponding metabolites.

[2] = Glucuronidation assay: statin glucuronidation in human liver microsomes; format: in vitro ADME; conditions: human, pH 7, read-out: intrinsic clearance of glucuronidation
Method: (§5) The term “glucuronidation assay” as used herein refers to the following assay when performed with human liver microsomes. […] Unless otherwise specified, the reaction was started by the addition of statins following a 3-min pre-incubation at 37° C., and the reaction was incubated for 45-60 min. Control experiments included incubation mixtures with either microsomes or UDPGA missing. The reaction was terminated, at appropriate time intervals, by the addition of 0.8 ml acetonitrile (ACN). […] The ability of statins to undergo glucuronidation was measured by formation of statin glucuronide and statin lactones, and expressed in term of intrinsic clearance (Clint). The CLint was estimated by dividing Vmax by apparent Km. The Km and Vmax values were estimated using a nonlinear regression program, based on a Michealis-Menten equation as follow: V=Vmax×C/(Km+C); V=formation rate of statin glucuronide+lactone, and C=substrate concentration. Incubations were performed in triplicate for human liver microsomes (pooled from n=10) or UGTs at 250-μM substrate concentration. Values are mean±SD (n=3 to 5).

human liver microsomes [3] = test: as above; format: in vitro ADME; conditions: preliminary data
Method: as §5

[4] = cited from earlier work; for Cmax: reported values following 600 mg bid gemfibrozil or 200 mg qd fenofibrate in humans; for increase of plasma AUC by gemfibrozil: humans, multiple oral doses of gemfibrozil, single oral dose of simvastatin or lovastatin
[5] = tested on: human recombinant UGT isoforms; test: UGT-specific glucuronidation assay, identification of responsible isoforms; format: in vitro ADME
Method: To examine UGT isoforms responsible for the glucuronidation of statins, incubations with various human recombinant UGT isoforms were performed using the same conditions as described herein for human liver microsomes in Example 1, except that the mixture contained 0.3 mg UGTs and was incubated for up to 60 min.

[6] = tested on: glucuronidation of simvastatin acid (UDPGA-dependent); test: Inhibition of simvastatin acid glucuronidation in dog liver microsomes; format: in vitro ADME; conditions: pH 7, probe simvastatin acid (10-20 μM)
Method: A typical incubation mixture, in a final volume of 0.3 ml, contained 0.45 mg human or animal liver microsomes, preincubated with 0.045 mg Brij 58 (or 0.0225 mg alamethicin) for 15 min, 20 mM MgCl2, 5 mM UDPGA, and 0.05 M Tris buffer, pH 7.0.

[7] = Pharmacokinetics after oral simvastatin in dogs pretreated with vehicle, gemfibrozil or fenofibrate; conditions: dog, in vivo
[8] = dog, in vivo, po
[9] = Ex vivo simvastatin hydrolysis in dog plasma; format: in vitro ADME
[10] = dog, in vivo
[11] = tested on: glucuronidation of CVA (UDPGA-dependent); test: in vitro; conditions: human, liver microsomes, pH 7, probe CVA (10-20 μM), IC50, CVA Glucuronidation, statin 10-20 μM, UDPGA
Method: (§1) The term “glucuronidation inhibition assay” as used herein refers to the following assay when performed with human liver microsomes.
(§2) The effects of inhibitors on metabolism of the statins were expressed as percentages of metabolites (statin glucuronides and lactones) formed in the presence of inhibitors relative to the corresponding values obtained in the absence of inhibitors (control) on the same day.
(§3) Incubations were performed in triplicate for each concentration of inhibitors, and involved co-incubation of GFZ or ketoconazole (1 μM) with statins (10-20 μM) in the presence of NADPH (oxidation) or UDPGA (glucuronidation).

[12] = tested on: glucuronidation of RVA (UDPGA-dependent); test: in vitro; conditions: human, liver microsomes, pH 7, probe RVA (10-20 μM), IC50, RVA Glucuronidation, statin 10-20 μM, UDPGA
Method: as §1, §2, §3

[13] = tested on: glucuronidation of SVA (UDPGA-dependent); test: in vitro; conditions: human, liver microsomes, pH 7, probe SVA (10-20 μM), IC50, SVA Glucuronidation, statin 10-20 μM, UDPGA
Method: as §1, §2, §3

[14] = tested on: glucuronidation of AVA (UDPGA-dependent); test: in vitro; conditions: human, liver microsomes, pH 7, probe AVA (10-20 μM), IC50, AVA Glucuronidation, statin 10-20 μM, UDPGA
Method: as §1, §2, §3

human liver microsomes [15] = test: in vitro
Method: as §1, §2, §3

[16] = Clinical pharmacokinetics in humans (literature); format: in vivo; conditions: at their respective therapeutic doses
CYP3A4 = target: T1, CYP3A4 (Homo sapiens, UniProt P08684); conditions: human liver microsomes; cited from earlier work
T1 construct: in human liver microsomes, an in vitro assay for determining hepatic CYP3A4 activity; host or cells: human liver microsomes

[17] = tested on: oxidative metabolism of simvastatin acid (NADPH-dependent); test: Inhibition of simvastatin acid oxidation in dog liver microsomes; format: in vitro ADME; conditions: pH 7.4, probe simvastatin acid (10-20 μM)
[18] = tested on: oxidation of CVA to hydroxylated metabolite M1; test: in vitro; conditions: human, pH 7.4
Method: (§4) The term “oxidation inhibition assay” as used herein refers to the following assay when performed with human liver microsomal protein.
as §3

[19] = tested on: oxidative metabolism of AVA (NADPH-dependent); test: in vitro; conditions: human, pH 7.4
Method: as §4, §3

[20] = tested on: CYP3A-mediated oxidation of SVA; test: in vitro; conditions: human, pH 7.4
Method: as §4, §3

[21] = tested on: oxidation of CVA to O-demethylated metabolite M2; test: in vitro; conditions: human, pH 7.4
Method: as §4, §3

[22] = tested on: oxidation of CVA to metabolite M1; test: in vitro; conditions: human, pH 7.4
Method: as §4, §3

[23] = tested on: oxidation of CVA to metabolite M2; test: in vitro; conditions: human, pH 7.4
Method: as §4, §3

[24] = tested on: oxidative metabolism of SVA (NADPH-dependent); test: in vitro; conditions: human, pH 7.4
Method: as §4, §3

[25] = tested on: oxidation of CVA (both oxidative metabolites); test: in vitro; conditions: human, pH 7.4
Method: as §4, §3

T1 sequence (P08684 whole entry): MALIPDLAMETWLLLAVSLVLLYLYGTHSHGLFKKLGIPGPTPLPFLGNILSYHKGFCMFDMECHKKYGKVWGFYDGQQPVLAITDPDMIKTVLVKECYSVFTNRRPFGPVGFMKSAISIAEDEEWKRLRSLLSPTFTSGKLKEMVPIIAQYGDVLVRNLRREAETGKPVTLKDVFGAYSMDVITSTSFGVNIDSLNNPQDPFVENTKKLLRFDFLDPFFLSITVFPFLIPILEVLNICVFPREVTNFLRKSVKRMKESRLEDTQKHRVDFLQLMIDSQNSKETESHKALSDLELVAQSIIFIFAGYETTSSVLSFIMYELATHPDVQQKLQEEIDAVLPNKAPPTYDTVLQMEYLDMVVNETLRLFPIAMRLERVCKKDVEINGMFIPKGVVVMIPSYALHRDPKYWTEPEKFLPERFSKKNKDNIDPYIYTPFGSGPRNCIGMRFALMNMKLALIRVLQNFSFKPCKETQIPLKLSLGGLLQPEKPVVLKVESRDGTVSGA

Q: With `COCc1c(C(C)C)nc(C(C)C)c(/C=C/[C@@H](O)C[C@@H](O)CC(=O)O)c1-c1ccc(F)cc1` [CVA, cerivastatin] as the compound, how does the microsomal CLint [1] read?
A: 10 µL/min/mg

Q: And the microsomal CLint [2]?
A: 2.9 µL/min/mg

Q: And the “CLint, Glucuronidation” value (human liver microsomes [3])?
A: 2.9 ul/min/mg protein

Q: What about the “Relative Contribution of glucuronidation to overall metabolism” value (human liver microsomes [3]) of the same compound?
A: 22

Q: Which results are given for `CC(C)OC(=O)C(C)(C)Oc1ccc(C(=O)c2ccc(Cl)cc2)cc1` [Fenofibrate, fenofibrate]?
A: Cmax [4]: 15 to 55 µM; UGT isozymes catalyzing glucuronidation of the substance [5]: UGT1A9 and isoforms of the UGT2B subfamily

Q: Which IC50 [6] does the source give for `CC(C)(Oc1ccc(C(=O)c2ccc(Cl)cc2)cc1)C(=O)O` [Fenofibric acid, fenofibric acid] here?
A: 283 µM

Q: What about the Cmax ([7]; Cmax of fenofibric acid, fenofibrate treated) of the same compound?
A: 77 ± 9.7 µM

Q: What does the source list for `Cc1ccc(C)c(OCCCC(C)(C)C(=O)O)c1` [Gemfibrozil, gemfibrozil]?
A: SVA/SV AUC ratio, Gem/vehicle [8]: 5.4 ± 2.1; effect on ex vivo simvastatin hydrolysis [9]: Minimal effect; effect on ex vivo simvastatin hydrolysis ([9]; listed as gemfibrozil): did not affect; decrease in the biliary excretion of simvastatin-glucuronide [10]: ~2 fold; IC50 [6]: 195 µM; Cmax [4]: 100 to 300 µM; IC50 [11]: 82 µM; IC50 [12]: ~400 µM; IC50 [13]: 354 µM; IC50 [14]: 314 µM; mode of inhibition of simvastatin acid glucuronidation (human liver microsomes [15]): competitive inhibition; IC50 (human liver microsomes [15]; read-out: IC50, AVA Glucuronidation, statin 10-20 μM, UDPGA): 316 µM; exposure in humans relative to fenofibrate/fenofibric acid [16]: > 2 fold; effect on CYP3A4 mediated 1'-hydroxylation of midazolam (CYP3A4): no appreciable inhibitory effect; UGT isozymes catalyzing glucuronidation of the substance [5]: UGT1A1 and 1A3; IC50 [17]: ~1000 µM; IC50 [18]: 87 µM; IC50 [19]: > 750 µM; IC50 [20]: > 800 µM; IC50 [21]: 220 µM; AUC(0-t) ([7]; po, 75 mg/kg, AUC 12 hr of gemfibrozil, gemfibrozil 75 mg/kg bid for 5 days): 1440 ± 176 µM·h; Cmax ([7]; po, 75 mg/kg, Cmax of gemfibrozil, gemfibrozil treated (75 mg/kg bid for 5 days)): 446 ± 66 µM

Q: For `CC(=O)N1CCN(c2ccc(OCC3COC(Cn4ccnc4)(c4ccc(Cl)cc4Cl)O3)cc2)CC1` (stereo not drawn) [Ketoconazole, ketoconazole], which inhibition at 1 µM [22] is on record?
A: 68%

Q: What about the inhibition at 1 µM [19] of the same compound?
A: > 90%

Q: What about the inhibition at 1 µM [23] of the same compound?
A: ~50%

Q: And the inhibition at 1 µM [24]?
A: > 85%

Q: What about the inhibition at 1 µM [25] of the same compound?
A: ≤ 50%

Q: For `CCC(C)(C)C(=O)O[C@H]1C[C@@H](C)C=C2C=C[C@H](C)[C@H](CC[C@@H](O)C[C@@H](O)CC(=O)O)[C@H]21` [Simvastatin acid, simvastatin acid], which “increase of plasma AUC by gemfibrozil” value [4] is on record?
A: 185%

Q: And the “UGT isozymes catalyzing glucuronidation of the substance” value ([5]; listed as SVA)?
A: UGT1A1 and 1A3; also recorded: UGT1A10

Q: For `CC[C@H](C)C(=O)O[C@H]1C[C@@H](C)C=C2C=C[C@H](C)[C@H](CC[C@@H](O)C[C@@H](O)CC(=O)O)[C@H]21` [lovastatin acid], which “increase of plasma AUC by gemfibrozil” value [4] is on record?
A: 280%

Q: Which “increase of plasma AUC by gemfibrozil” value [4] does the source give for `CC[C@H](C)C(=O)O[C@H]1C[C@@H](C)C=C2C=C[C@H](C)[C@H](CC[C@@H]3C[C@@H](O)CC(=O)O3)[C@H]21` [lovastatin lactone, lovastatin] here?
A: no significant effect

Source: patent US7407772B2, “Screening and selection methods for statin drug combinations” (Merck & Co., Inc., priority 2001, dated 2008)
